How the values were obtained:
[1] = system: RPMI8226-GFP-FLUC cells; assay: mouse model of multiple myeloma (RPMI8226-GFP-FLUC, tail vein); assay type: in vivo, NSG mice; conditions: 5 mg/kg intravenously, 2 days per week for 3 cycles, untreated group all died on day 50
Protocol: A total of 12 male NSG (NOD scid gamma) mice were used. The animals were housed in a semi-specific pathogen free (Semi-SPF) animal house at the Chonnam National University Center for Biomedical Science Convergence at a temperature of 20-24° C., humidity of 40-60%, and a 12-hour light/dark cycle, with 5 animals per cage. Sterile water and feed were provided ad libitum, and all experimental procedures were in accordance with the Animal welfare act and approved by the Institutional Animal Care and Use Committee of Chonnam National University (Approval No.: CNU IACUC-H-2020-36). […]
Mice were injected with RPMI8226-GFP-FLUC cells, and 8 days later, cancer formation was determined using an in vivo imaging system (IVIS) (NightOWL II LB983 NC100, Berthold, Germany). […]
Meanwhile, a multiple myeloma cell line (RPMI8226) was transfected with a puromycin resistance gene and a luciferase-GFP gene using a lentiviral vector at the EF1a promoter site, and the dynamics of MM cells in mice were identified and monitored by an in vivo bioluminescence imaging assay (FIG. 28). The transgenic multiple myeloma cell line, which can be monitored in vivo, was injected 1×10^7 cells/ml through the tail vein of 6-11 week old combined immunodeficient NSG mice to establish a mouse model of multiple myeloma. […]

[2] = initial acute toxicity evaluation (liver, kidney, cardiac markers); assay type: in vivo; conditions: rats, 5 mg/kg intravenously (femoral vein), blood 3 hours later
Protocol: As an initial toxicity evaluation of KBB-NX series synthetic compounds, KBB-NX-16 and KBB-NX-20 were injected intravenously into the femoral vein of rats at a dose of 5 mg/kg and blood was collected 3 hours later to test for markers of liver toxicity (marker ALT), nephrotoxicity (BUN, creatinine) and cardiotoxicity (CK-MB, myoglobin).

Compound | survival after transplantation [1] | cardiotoxicity (CK-MB, myoglobin) [2] | hepatotoxicity (marker ALT) [2] | nephrotoxicity (BUN, creatinine) [2]
COc1cc(O)cc(O)c1C(=O)/C=C/c1ccc(O)cc1 [KBB-NX-2, (E)-1-(2,4-dihydroxy-6-methoxyphenyl)-3-(4-hydroxyphenyl)prop-2-en-1-one] | 64 days | – | – | –
COc1cc(O)c(CC=C(C)C)c2c1C(=O)CC(c1ccc(C(C)C)cc1)O2 (centres unmarked) [KBB-NX-16, 7-hydroxy-2-(4-isopropylphenyl)-5-methoxy-8-(3-methylbut-2-en-1-yl)chroman-4-one] | – | did not exhibit significant | did not exhibit significant | did not exhibit significant
COc1cc(O)cc2c1C(=O)CC(c1ccc(C)s1)O2 (centres unmarked) [KBB-NX-20, 7-hydroxy-5-methoxy-2-(5-methylthiophene-2-yl)chroman-4-one] | – | did not exhibit significant | did not exhibit significant | did not exhibit significant
Nc1cccc2c1CN(C1CCC(=O)NC1=O)C2=O (centres unmarked) [lenalidomide, 3-(4-amino-1-oxoisoindolin-2-yl)piperidine-2,6-dione, reference compound] | 64 days | – | – | –

From US20250221944A1, “COMPOSITION FOR PREVENTING OR TREATING MULTIPLE MYELOMA COMPRISING NOVEL CHROMANON COMPOUND AS ACTIVE INGREDIENT” (KBLUEBIO INC, priority 2022, published 2025)
